Measurements: patent US10028961B2, “Therapeutically active compounds and their methods of use” (AGIOS PHARMACEUTICALS, INC., priority 2013, dated 2018)
Like-named read-outs stand apart in the source and are kept apart here.

Key:
[1] = system: Neurosphere cells (TS603); test: Cellular assay for IDH1m R132H inhibitors, 2-HG by LC-MS in neurosphere cells (TS603); type: cell-based; conditions: 2-HG in media at 48 hours
Method: Cellular Assay for IDH1m R132H Inhibitors.
The following describes the experimental procedures that can be used to obtain data in column 4 of Table 5.
Neurosphere cells (TS603) are grown at 37 C in 5% CO2 in Stem Cell Technologies NeuroCult™ NS-A media supplemented with 1% Primocin, 1% Normocin, 0.0002% Heparin, 20 ng/mL EGF and 10 ng/mL bFGF. Cells are harvested, pelleted and resuspended in Accumax for cell dissociation and counting. Cells are counted and then resuspended in NeuroCult media with 2× heparin, EGF and bFGF at 4 million cells/10 mL media. 100 μl of cell solution are plated in each well of a 96 well with the exception of columns 1 and 12. Columns 1 and 12 contain 200 μL PBS. Compound dose responses are set up at a 2× concentration in Neurocult media without heparin, EGF and bFGF. The final concentration of DMSO is 0.25%. DMSO only control wells are plated in row H. The plates are then placed in the incubator for 48 hours. At 48 hours, 100 μl of media is removed from each well and analyzed by LC-MS for 2-HG concentrations. The cell plate is placed back in the incubator for another 24 hours. At 72 hours post compound addition, 10 mL/plate of Promega Cell Titer Glo reagent is thawed and mixed. The cell plate is removed from the incubator and allowed to equilibrate to room temperature. Then 100 μl of Promega Cell Titer Glo reagent is added to each well of media. The cell plate is then placed on an orbital shaker for 10 minutes and then allowed to sit at room temperature for 20 minutes. The plate is then read for luminescence with an integration time of 500 ms.

[2] = biological target: IDH1 wt/IDH1 R132H heterodimer (Homo sapiens (Human), UniProt O75874, R132H); test: In vitro assay for IDH1m R132H inhibitors, IDH1 wt/IDH1 R132H heterodimer, NADPH depletion (diaphorase/resazurin); type: biochemical
Sequence of IDH1 wt/IDH1 R132H heterodimer (O75874 whole entry R132H): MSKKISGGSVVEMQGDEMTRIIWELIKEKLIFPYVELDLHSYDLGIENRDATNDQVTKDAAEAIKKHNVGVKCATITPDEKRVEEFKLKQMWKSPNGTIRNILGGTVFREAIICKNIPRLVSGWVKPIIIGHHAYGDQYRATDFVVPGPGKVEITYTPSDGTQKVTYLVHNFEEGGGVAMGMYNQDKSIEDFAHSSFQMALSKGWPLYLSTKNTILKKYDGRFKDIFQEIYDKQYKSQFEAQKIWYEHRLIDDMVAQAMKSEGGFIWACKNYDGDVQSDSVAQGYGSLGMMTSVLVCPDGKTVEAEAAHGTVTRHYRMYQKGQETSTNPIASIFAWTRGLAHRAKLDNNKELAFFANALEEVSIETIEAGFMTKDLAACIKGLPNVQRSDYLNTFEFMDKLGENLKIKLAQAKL
Sequence of IDH1 wt/IDH1 R132H heterodimer (O75874 whole entry, stated change not applied): as the sequence (O75874 whole entry R132H) above, with H132R counted along it
Method: The following describes the experimental procedures that can be used to obtain data on columns 2 and 4 of Table 4 and column 2 of Table 5.
In the primary reaction, the reduction of α-KG acid to 2-HG is accompanied by a concomitant oxidation of NADPH to NADP. The amount of NADPH remaining at the end of the reaction time is measured in a secondary diaphorase/resazurin reaction in which the NADPH is consumed in a 1:1 molar ratio with the conversion of resazurin to the highly fluorescent resorufin.
The mixture of compound, enzyme, and cofactor is pre-incubated at room temperature for 1 hr prior to the addition of alpha-ketoglutarate. To perform the secondary reaction, 10 uL of 1× buffer containing 36 μg/ml diaphorase and […] resazurin is added to the primary reaction and incubated for a further 5 minutes at 25° C. […] Compounds or compound dilutions are prepared in 100% DMSO concentration and diluted 1:50 into the final reaction. […] IC50s are determined.
IDH1 or IDH2 wildtype (wt) and mutant heterodimers are expressed and purified by methods known in the art. […] Co-expression of IDH1wt-his and IDH1R132C-flag is carried out in sf9 insect cells. Cells (25 g) are resuspended in 250 ml of 50 mM Tirs, 500 mM NaCl, pH7.4, at 4° C. with stirring. Cells are disrupted with 4 passes through an M-Y110 Micro fluidizer (Microfluidics) set to 500 psi, and then centrifuged at 22,000 rcf for 20 min at 4° C. The supernatant is harvested and loaded at 15 cm/h on a Histrap FF 5*1 ml column (GE) which is equilibrated with 50 mM Tirs, 500 mM NaCl, pH7.4. Host cell contaminants are removed by washing the column with equilibration buffer followed by equilibration buffer containing 20 mM imidazole and 60 mM imidazole to baseline. IDH1wt-his homodimer and IDH1wt-his/IDH1R132C-flag are eluted by equilibration buffer containing 250 mM imidazole. Fractions eluted by 250 mM imidazole are pooled together and loaded at 15 cm/h onto a column pre-packed with 10 ml ANTI-FLAG® M2 Affinity Gel (Sigma), the column is equilibrated with 50 mM Tris, 500 mM NaCl, pH7.4. After washing with equilibration buffer, IDH1wt-his/IDH1R132C-flag heterodimer is eluted by equilibration buffer containing flag peptide (0.2 mg/ml). Aliquots of IDH1wt-his/IDH1R132C-flag are flash frozen in liquid N2 and stored at −80° C. Same conditions are used for the purification of IDH1wt-his/IDH1R132H-flag.

[3] = system: U87MG pLVX-IDH2 R140Q-neo cells; test: U87MG pLVX-IDH2 R140Q-neo cell based assay, 2-HG by LC-MS; conditions: Homo sapiens, U-87 MG
[4] = biological target: IDH2 R140Q (Homo sapiens (Human), UniProt P48735, R140Q); test: In vitro assay for IDH2m R140Q inhibitors, cofactor depletion assay; type: biochemical; conditions: IDH2 R140Q enzyme
Sequence of IDH2 R140Q (P48735 40-452 R140Q): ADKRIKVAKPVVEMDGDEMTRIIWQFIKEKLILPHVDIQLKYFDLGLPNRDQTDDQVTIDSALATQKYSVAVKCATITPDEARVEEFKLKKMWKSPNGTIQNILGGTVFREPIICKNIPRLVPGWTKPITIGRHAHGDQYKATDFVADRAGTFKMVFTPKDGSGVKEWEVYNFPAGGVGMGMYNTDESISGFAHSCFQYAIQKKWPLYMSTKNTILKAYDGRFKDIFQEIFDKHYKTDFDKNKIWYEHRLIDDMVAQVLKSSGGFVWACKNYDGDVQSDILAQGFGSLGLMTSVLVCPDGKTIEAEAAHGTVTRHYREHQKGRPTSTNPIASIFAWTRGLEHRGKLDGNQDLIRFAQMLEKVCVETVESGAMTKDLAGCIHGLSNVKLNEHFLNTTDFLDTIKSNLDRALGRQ
Source text: The following describes the experimental procedures used to obtain data on column 7 of Table 4.
The reaction is terminated by the addition of a second enzyme, diaphorase, and a corresponding substrate, resazurin. Diaphorase reduces resazurin to the highly fluorescent resorufin with the concomitant oxidation of NADPH to NADP, both halting the IDH2 reaction by depleting the available cofactor pool and facilitating quantitation of the amount of cofactor remaining after a specific time period through quantitative production of an easily detected fluorophore.
The test compound is then incubated for one hour at room temperature with the enzyme; before starting the IDH2 reaction with the addition of 10 μl of substrate mix containing 4 μM NADPH and 1.6 mM α-KG in the buffer described above. After a further 16 hours of incubation at room temperature, the reaction is halted and the remaining NADPH measured through conversion of resazurin to resorufin by the addition of 25 μl Stop Mix (36 μg/ml diaphorase enzyme and 60 μM resazurin; in buffer).

[5] = IDH1 wt/IDH1 R132H heterodimer, 300 μM NADP (saturated), read-out: IDH1 wt/R132H NADPH/NADP IC50 saturated
[6] = IDH1 wt/R132H heterodimer, NADPH/NADP, not saturated, read-out: IDH1 wt/R132H NADPH/NADP IC50 not saturated

Row | Structure (SMILES) | IC50 [1] | IC50 [2, 5] | IC50 [3] | IC50 [4] | IC50 [2, 6]
1 | FC(F)(F)c1cc(Nc2nc(NCC3CC3)nc(-c3cncc(C(F)(F)F)n3)n2)ccn1 [Compound 387] | < 50 nM | 100 to 1000 nM | < 50 nM | < 50 nM | 
2 | C[C@@H](Nc1nc(Nc2ccnc(-c3ccc(C#N)cc3)c2)nc(-c2cccc(C(F)(F)F)n2)n1)C(F)(F)F [Compound 383] | < 50 nM | 100 to 1000 nM | < 50 nM | < 50 nM | 
3 | C[C@@H](Nc1nc(Nc2ccnc(-c3ccc(F)cc3)c2)nc(-c2cccc(C(F)(F)F)n2)n1)C(F)(F)F [Compound 371] | < 50 nM | < 50 nM | < 50 nM | < 50 nM | 
4 | C[C@H](Nc1nc(Nc2ccnc(C3(C#N)CC3)c2)nc(-c2cccc(C(F)(F)F)n2)n1)C(F)(F)F [Compound 351] | < 50 nM | < 50 nM | < 50 nM | < 50 nM | 
5 | CC(F)(F)c1cc(Nc2nc(N[C@H]3CCC(F)(F)C3)nc(-c3cccc(C(F)(F)F)n3)n2)ccn1 [Compound 360] | < 50 nM | < 50 nM | < 50 nM | < 50 nM | 
6 | FC1(F)CCC(Nc2nc(NC3CCC(F)(F)C3)nc(-c3cncc(Cl)n3)n2)C1 (stereo not shown) [Compound 129] | < 50 nM |  | < 50 nM | < 50 nM | < 50 nM
7 | CC(F)(F)c1csc(-c2nc(NC3CCC(F)(F)CC3)nc(NC3CCC(F)(F)CC3)n2)n1 [Compound 357] | < 50 nM | 50 to 100 nM | < 50 nM | < 50 nM | 
8 | Fc1cc(F)cc(Nc2nc(NC3CCC(F)(F)C3)nc(-c3nc(F)ccc3F)n2)c1 (stereo not shown) [Compound 139] | < 50 nM |  | < 50 nM | < 50 nM | < 50 nM
9 | FC(F)(F)c1cccc(-c2nc(NCC3CC3(F)F)nc(NCC3CC3(F)F)n2)n1 (stereo not shown) [Compound 354] | < 50 nM | 50 to 100 nM | < 50 nM | < 50 nM | 
10 | CC(F)(F)c1cccc(-c2nc(Nc3ccnc(C4(C#N)CC4)c3)nc(NC3CC(F)(F)C3)n2)n1 [Compound 372] | < 50 nM | < 50 nM | < 50 nM | < 50 nM | 
11 | C[C@@H](Nc1nc(Nc2ccnc(-c3ccc(Cl)cc3)c2)nc(-c2cccc(C(F)(F)F)n2)n1)C(F)(F)F [Compound 364] | < 50 nM | 50 to 100 nM | < 50 nM | < 50 nM | 
12 | N#CC1(c2cc(Nc3nc(N[C@H]4CCC(F)(F)C4)nc(-c4ccnc(C(F)(F)F)n4)n3)ccn2)CC1 [Compound 341] | < 50 nM | 100 to 1000 nM | < 50 nM | < 50 nM | 
13 | FC1(F)CCC(Nc2nc(NC3CCC(F)(F)C3)nc(-c3nc(C(F)(F)F)cs3)n2)C1 (stereo not shown) [Compound 148] | < 50 nM |  | < 50 nM | < 50 nM | < 50 nM

Now from value to molecule:

Row | IC50 [1] | IC50 [2, 5] | IC50 [3] | IC50 [4] | IC50 [2, 6] | Structure (SMILES)
14 | < 50 nM | 100 to 1000 nM | < 50 nM | < 50 nM |  | N#CC1(c2cc(Nc3nc(N[C@@H]4CCC(F)(F)C4)nc(-c4nccc(C(F)(F)F)n4)n3)ccn2)CC1 [Compound 375]
15 | < 50 nM | < 50 nM | < 50 nM | < 50 nM |  | CC(F)(F)c1cncc(-c2nc(NC3CCC(F)(F)C3)nc(NC3CCC(F)(F)C3)n2)n1 (stereo not shown) [Compound 370]
16 | < 50 nM | < 50 nM | < 50 nM | < 50 nM |  | FC1(F)CC[C@H](Nc2nc(N[C@H]3CCC(F)(F)C3)nc(-c3cncc(C(F)(F)F)n3)n2)C1 [Compound 406]
17 | < 50 nM | < 50 nM | 100 to 1000 nM | 100 to 1000 nM |  | CC[C@H](Nc1nc(N[C@@H](CC)C(F)(F)F)nc(-c2ccnc(C(F)(F)F)n2)n1)C(F)(F)F [Compound 345]
18 | 50 to 100 nM | 100 to 1000 nM | < 50 nM | < 50 nM |  | FC1(F)CC[C@@H](Nc2nc(Nc3ccnc(C(F)(F)F)c3)nc(-c3ccnc(C(F)(F)F)n3)n2)C1 [Compound 340]
19 | < 50 nM | < 50 nM | < 50 nM | < 50 nM |  | FC1(F)CCC(Nc2nc(NC3CCC(F)(F)C3)nc(-c3cccc(C(F)(F)F)n3)n2)CC1 (stereo not shown) [Compound 395]
20 | < 50 nM | 50 to 100 nM | < 50 nM | < 50 nM |  | CC(F)(F)c1cc(Nc2nc(NC3CCC(F)(F)CC3)nc(-c3cccc(C(F)(F)F)n3)n2)ccn1 [Compound 361]
21 | < 50 nM | < 50 nM | 50 to 100 nM | 50 to 100 nM |  | CC[C@H](Nc1nc(N[C@@H](CC)C(F)(F)F)nc(-n2ccc(C(F)(F)F)n2)n1)C(F)(F)F [Compound 363]
22 | < 50 nM | < 50 nM | < 50 nM | < 50 nM |  | Fc1cc(F)cc(Nc2nc(N[C@@H]3CCC(F)(F)C3)nc(-c3cncc(C(F)(F)F)n3)n2)c1 [Compound 369]
23 | < 50 nM |  | < 50 nM | < 50 nM | < 50 nM | FC1(F)CCC(Nc2nc(NC3CC4(C3)CC(F)(F)C4)nc(-c3cccc(C(F)(F)F)n3)n2)CC1 [Compound 228]
24 | < 50 nM |  | < 50 nM | < 50 nM | < 50 nM | Fc1ccc([C@H]2C[C@H](Nc3nc(NC4CCC(F)(F)C4)nc(-c4cccc(C(F)(F)F)n4)n3)C2)cc1 (stereo partly shown) [Compound 230]
25 | < 50 nM | < 50 nM | < 50 nM | < 50 nM |  | Fc1cc(F)cc(Nc2nc(NC3CCC(F)(F)CC3)nc(-c3cncc(C(F)(F)F)n3)n2)c1 [Compound 367]
26 | < 50 nM | 50 to 100 nM | < 50 nM | < 50 nM |  | CC(F)(F)c1cncc(-c2nc(NC3CCC(F)(F)CC3)nc(NC3CCC(F)(F)CC3)n2)n1 [Compound 374]
27 | < 50 nM |  | < 50 nM | < 50 nM | < 50 nM | N#Cc1cc(Nc2nc(NC3CCC(F)(F)CC3)nc(-c3cccc(C(F)(F)F)n3)n2)ccn1 [Compound 204]
28 | < 50 nM | < 50 nM | < 50 nM | < 50 nM |  | C[C@H](Nc1nc(Nc2ccnc(C(F)(F)F)c2)nc(-n2ccc(C(F)(F)F)n2)n1)C(F)(F)F [Compound 356]
